Experimental data reported in PubChem BioAssay (NCI).
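Results reflect a 48-hour exposure of cells in 96-well plates to compound at five concentrations. TGI: concentration producing complete growth inhibition.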

Experiments:
Assay in all cases: DTP human tumour cell line panel, 48 h
[1] = tested on: HS 578T breast
[2] = tested on: SK-MEL-28 melanoma
[3] = tested on: A549 NSCLC
[4] = tested on: MDA-N
[5] = tested on: CAKI-1 renal
[6] = tested on: HT29 colon
[7] = tested on: MALME-3M melanoma
[8] = tested on: NCI-H460 lung
[9] = tested on: UACC-257 melanoma
[10] = tested on: KM12 colon
[11] = tested on: 786-0 renal
[12] = tested on: SW-620 colon
[13] = tested on: OVCAR-4 ovarian
[14] = tested on: MDA-MB-435
[15] = tested on: M14 melanoma
[16] = tested on: SR leukemia
[17] = tested on: TK-10 renal
[18] = tested on: ACHN renal
[19] = tested on: UACC-62 melanoma

## Nc1c(N2CCCCC2)c(=O)nc2[nH]/c(=C\c3ccccc3)c(=O)n12
[1]
  TGI: > 100 µM
[2]
  TGI: > 100 µM
[3]
  TGI: > 100 µM
[4]
  TGI: > 100 µM
[5]
  TGI: > 100 µM
[6]
  TGI: > 100 µM
[7]
  TGI: > 100 µM
[8]
  TGI: > 100 µM
[9]
  TGI: > 100 µM
[10]
  TGI: > 100 µM
[11]
  TGI: > 100 µM
[12]
  TGI: > 100 µM
[13]
  TGI: > 100 µM
[14]
  TGI: > 100 µM
[15]
  TGI: > 100 µM
[16]
  TGI: > 100 µM
[17]
  TGI: > 100 µM
[18]
  TGI: > 100 µM

## CC(=O)OCC(OC(C)=O)C(OC(C)=O)C(OC(C)=O)C(/C=N\Nc1nc2ccccc2c(=O)[nH]1)=N/Nc1nc2ccccc2c(=O)[nH]1 (stereo not given)
[1]
  TGI: > 100 µM
[2]
  TGI: > 100 µM
[3]
  TGI: > 100 µM
[4]
  TGI: > 100 µM
[5]
  TGI: > 100 µM
[6]
  TGI: > 100 µM
[7]
  TGI: > 100 µM
[8]
  TGI: > 100 µM
[9]
  TGI: > 100 µM
[10]
  TGI: > 100 µM
[19]
  TGI: > 100 µM
[11]
  TGI: > 100 µM
[12]
  TGI: > 100 µM
[14]
  TGI: > 100 µM
[15]
  TGI: > 100 µM
[16]
  TGI: > 100 µM
[18]
  TGI: > 100 µM

## O=C(NNC(=S)NCc1ccccc1)C12CC3CC(CC(C3)C1)C2
[1]
  TGI: > 100 µM
[2]
  TGI: > 100 µM
[4]
  TGI: > 100 µM
[6]
  TGI: > 100 µM
[7]
  TGI: > 100 µM
[8]
  TGI: > 100 µM
[9]
  TGI: > 100 µM
[10]
  TGI: > 100 µM
[19]
  TGI: > 100 µM
[11]
  TGI: > 100 µM
[12]
  TGI: > 100 µM
[13]
  TGI: > 100 µM
[14]
  TGI: > 100 µM
[15]
  TGI: > 100 µM
[16]
  TGI: > 100 µM
[17]
  TGI: > 100 µM
[18]
  TGI: > 100 µM

## O=C(O)c1ccc(Nc2nc3cc(C(F)(F)F)ccc3nc2-c2ccccc2)cc1
[1]
  TGI: 49.4 µM
[2]
  TGI: > 100 µM
[3]
  TGI: 40.3 µM
[4]
  TGI: > 100 µM
[5]
  TGI: 50.4 µM
[6]
  TGI: 28.2 µM
[7]
  TGI: > 100 µM
[8]
  TGI: 75.7 µM
[9]
  TGI: > 100 µM
[10]
  TGI: 35.3 µM
[19]
  TGI: 26.2 µM
[11]
  TGI: 35 µM
[12]
  TGI: 30.9 µM
[14]
  TGI: > 100 µM
[16]
  TGI: > 100 µM
[17]
  TGI: 39.3 µM
[18]
  TGI: > 100 µM

## COc1ccccc1NC(=S)Nc1cc(C)ccn1
[1]
  TGI: > 100 µM
[2]
  TGI: > 100 µM
[3]
  TGI: > 100 µM
[4]
  TGI: > 100 µM
[5]
  TGI: > 100 µM
[6]
  TGI: > 100 µM
[7]
  TGI: > 100 µM
[8]
  TGI: > 100 µM
[9]
  TGI: > 100 µM
[10]
  TGI: > 100 µM
[19]
  TGI: > 100 µM
[11]
  TGI: > 100 µM
[12]
  TGI: > 100 µM
[13]
  TGI: > 100 µM
[14]
  TGI: > 100 µM
[15]
  TGI: > 100 µM
[16]
  TGI: > 100 µM
[17]
  TGI: > 100 µM

## Nc1ccccc1N=Nc1c(S(=O)(=O)O)cc2cc(S(=O)(=O)O)cc(O)c2c1O
[1]
  TGI: > 100 µM
[2]
  TGI: > 100 µM
[3]
  TGI: > 100 µM
[4]
  TGI: > 100 µM
[5]
  TGI: > 100 µM
[6]
  TGI: > 100 µM
[7]
  TGI: > 100 µM
[9]
  TGI: > 100 µM
[10]
  TGI: > 100 µM
[19]
  TGI: > 100 µM
[11]
  TGI: > 100 µM
[12]
  TGI: > 100 µM
[13]
  TGI: > 100 µM
[14]
  TGI: > 100 µM
[15]
  TGI: > 100 µM
[16]
  TGI: > 100 µM
[17]
  TGI: > 100 µM
[18]
  TGI: > 100 µM

## CN1C(=O)C23CCCCC2CC1(c1ccccc1)S3 (stereo not given)
[1]
  TGI: > 100 µM
[2]
  TGI: > 100 µM
[3]
  TGI: > 100 µM
[4]
  TGI: > 100 µM
[5]
  TGI: > 100 µM
[6]
  TGI: > 100 µM
[7]
  TGI: > 100 µM
[9]
  TGI: 54.5 µM
[10]
  TGI: > 100 µM
[19]
  TGI: > 100 µM
[11]
  TGI: > 100 µM
[12]
  TGI: > 100 µM
[13]
  TGI: > 100 µM
[14]
  TGI: > 100 µM
[15]
  TGI: > 100 µM
[16]
  TGI: > 100 µM
[17]
  TGI: > 100 µM
[18]
  TGI: > 100 µM

## BrCC(Br)(c1ccccc1)c1ccccc1-c1cc(-c2ccccc2)cc(-c2ccccc2)n1 (stereo not given)
[1]
  TGI: 26 µM
[2]
  TGI: 25.3 µM
[3]
  TGI: 25.5 µM
[4]
  TGI: 10.9 µM
[5]
  TGI: 23.4 µM
[6]
  TGI: 6.65 µM
[7]
  TGI: 16.4 µM
[8]
  TGI: 11.9 µM
[9]
  TGI: 8.92 µM
[10]
  TGI: 12.6 µM
[11]
  TGI: 13.8 µM
[12]
  TGI: 14.2 µM
[13]
  TGI: 53.9 µM
[14]
  TGI: 4.63 µM
[15]
  TGI: 21.6 µM
[16]
  TGI: > 52.7 µM
[17]
  TGI: 21.5 µM
[18]
  TGI: 23.9 µM

## O=C(O)CCC(NC(=O)c1ccc(CNc2nc3ccccc3nc2C(=O)O)cc1)C(=O)O (stereo not given)
[1]
  TGI: > 100 µM
[2]
  TGI: > 100 µM
[3]
  TGI: > 100 µM
[4]
  TGI: > 100 µM
[6]
  TGI: > 100 µM
[7]
  TGI: > 100 µM
[9]
  TGI: > 100 µM
[10]
  TGI: > 100 µM
[19]
  TGI: > 100 µM
[11]
  TGI: > 100 µM
[12]
  TGI: > 100 µM
[13]
  TGI: > 100 µM
[14]
  TGI: > 100 µM
[15]
  TGI: > 100 µM
[16]
  TGI: > 100 µM
[17]
  TGI: > 100 µM
[18]
  TGI: > 100 µM

## COc1ccc(Nc2nc3ccccc3nc2C(=O)O)cc1OC
[1]
  TGI: > 100 µM
[2]
  TGI: > 100 µM
[3]
  TGI: > 100 µM
[4]
  TGI: > 100 µM
[5]
  TGI: > 100 µM
[6]
  TGI: > 100 µM
[7]
  TGI: > 100 µM
[8]
  TGI: > 100 µM
[9]
  TGI: > 100 µM
[10]
  TGI: > 100 µM
[19]
  TGI: > 100 µM
[11]
  TGI: > 100 µM
[12]
  TGI: > 100 µM
[14]
  TGI: > 100 µM
[15]
  TGI: > 100 µM
[16]
  TGI: > 100 µM
[17]
  TGI: > 100 µM
[18]
  TGI: > 100 µM

## CC1(C)CN=C(Nc2ccc(F)c(F)c2)S1
[1]
  TGI: > 100 µM
[2]
  TGI: > 100 µM
[3]
  TGI: > 100 µM
[4]
  TGI: > 100 µM
[5]
  TGI: > 100 µM
[6]
  TGI: > 100 µM
[7]
  TGI: > 100 µM
[9]
  TGI: > 100 µM
[10]
  TGI: > 100 µM
[19]
  TGI: > 100 µM
[11]
  TGI: > 100 µM
[12]
  TGI: > 100 µM
[13]
  TGI: > 100 µM
[14]
  TGI: > 100 µM
[15]
  TGI: > 100 µM
[16]
  TGI: > 100 µM
[17]
  TGI: > 100 µM
[18]
  TGI: > 100 µM

## CN(C)c1ccc(C(=NN)c2ccc(N(C)C)cc2)cc1
[1]
  TGI: > 100 µM
[2]
  TGI: > 100 µM
[3]
  TGI: > 100 µM
[4]
  TGI: 24.4 µM
[5]
  TGI: > 51 µM
[6]
  TGI: > 21.8 µM
[7]
  TGI: > 100 µM
[9]
  TGI: 0.813 µM
[10]
  TGI: > 100 µM
[19]
  TGI: > 100 µM
[11]
  TGI: 36.5 µM
[12]
  TGI: > 100 µM
[13]
  TGI: > 100 µM
[14]
  TGI: 0.298 µM
[15]
  TGI: > 100 µM
[16]
  TGI: > 100 µM
[17]
  TGI: 3.66 µM
[18]
  TGI: > 78.7 µM

## COc1ccc(N2C(=O)/C(=C\c3cccc(Oc4ccccc4)c3)SC2c2ccccc2)cc1 (stereo not given)
[1]
  TGI: > 100 µM
[2]
  TGI: > 100 µM
[3]
  TGI: > 100 µM
[4]
  TGI: > 100 µM
[5]
  TGI: > 100 µM
[7]
  TGI: > 100 µM
[8]
  TGI: > 100 µM
[9]
  TGI: > 100 µM
[10]
  TGI: > 100 µM
[19]
  TGI: > 100 µM
[11]
  TGI: > 100 µM
[12]
  TGI: > 100 µM
[13]
  TGI: > 100 µM
[14]
  TGI: > 100 µM
[15]
  TGI: > 100 µM
[16]
  TGI: 59.2 µM
[17]
  TGI: > 100 µM
[18]
  TGI: > 100 µM
